According to patent US6790936B1, “CAI resistance proteins and uses thereof” (The United States of America as represented by the …, priority 1994, dated 2004):

What was measured:
Assay type in all cases: cell-based, human
[1] = tested on: A2058 CAI resistant cells; assay: Culture of CAI resistant cells (A2058); settings: chronic culture under continuous CAI, 10, 20, 30 and 40 μM
Procedure: (§1) Low passage (passage 13) parental human melanoma cells (A2058), and human ovarian cancer cells (OVCAR3) were cultured in Dulbecco's Modified Eagles medium (DMEM) supplemented with 10% fetal calf serum (FCS) and pen/strep (penicillin and streptomycin). Over a period of 24 to 30 months, the cells were incubated with increasing concentrations of CAI starting with 0.1 μM and reaching 45 μM. The CAI, obtained from the Developmental Therapeutics Program of the National Cancer Institute, was dissolved in DMSO and aliquots were stored at −70° C. until used. The diluted CAI was added directly into the media as required. Continuous selective pressure with CAI was maintained throughout culture and was maintained throughout all experiments.
No overt differences in morphology of the A2058 CAI resistant cells was observed.

CAIR-1 = assay: Northern analysis of CAIR-1 expression in A2058-20R versus parental A2058 cells; settings: A2058-20R (20 μM CAI) vs parental A2058 total RNA, compared to GAPDH housekeeping gene control
Description: The subtracted probe was first hybridized against a Northern blot of total RNA from parental A2058 cells and CAI resistant A2058-20R cells. Increased expression of a number of transcripts was seen (FIG. 1, upper left panel). Re-hybridization of the blot with radiolabeled GAPDH as a housekeeping gene confirmed the […] (FIG. 1, lower left panel).
A cDNA library was constructed from A2058-20R cells by Stratagene (La Jolla, Calif., USA). The library was probed using standard approaches (Id.) and the positive probes were plaque purified. Forty-one clones were selected and 35 were determined to be nonoverlapping by restriction digest. Fifteen were randomly selected for determination of their expression by Northern analysis. Inserts were purified by low melting point agarose gel electrophoresis and then radiolabeled with standard random primer conditions (Amersham, Little Chalfont, Bucks, United Kingdom) and hybridized with a Northern of parental (wildtype) total RNA and RNA from A2058-20R cells. […] The CAIR-1 cDNA (clone 21DBB insert) was sequenced using standard dideoxy-sequencing (SequenaseII kit) with 35S-dATP label. The cDNA sequence is shown in Seq. Id No. 1.

OVCAR3 cells = assay: Culture of CAI resistant cells (OVCAR3); settings: cells chronically resistant to 10 μM and 20 μM CAI
Procedure: as §1, with “experiments. OVCAR3 cells chronically resistant to 10 μM and 20 μM CAI were also established.” for “experiments.”

In the case of `NC(=O)c1nnn(Cc2cc(Cl)c(C(=O)c3ccc(Cl)cc3)c(Cl)c2)c1N` [CAI, Carboxyamido-triazole], the “growth rate of A2058 CAI resistant cells” value [1] is reported as “not attenuated until the 40 μM treatment in which it decreased somewhat”, the “increased expression of CAIR-1 cDNA (clone 21DBB) in response to culture with CAI” value (CAIR-1) is reported as 3.8 fold and the “growth rates of OVCAR3 cells in the CAI treatments” value (OVCAR3 cells) is reported as “slightly lower growth rates”.
